Measured values published in patent US7045528B2, “Benzofused heterozryl amide derivatives of thienopyridines useful as therapeutic agents, pharmaceutical compositions including the same, and methods for their use” (Agouron Pharmaceuticals, Inc., priority 2002, dated 2006).
pKi: −log10 of the molar value.

Experiments:
[1] = target: T1, unphosphorylated VEGF-R2Δ50 (FLVK) (Homo sapiens, UniProt P35968, DEL940-989/E990V); test: VEGF-R2 coupled spectrophotometric assay, unphosphorylated VEGF-R2Δ50 (FLVK); assay type: biochemical; settings: unphosphorylated VEGF-R2Δ50; for inhibition at 0.05 µM: 50 nM compound, read-out: FLVK (% inh @ 50 nM)
T1 construct: VEGF-R2Δ50 contains residues 806–939 and 990–1171; made in house; host or cells: baculovirus/insect cell system
T1 sequence (P35968 with tags, fused parts or gaps DEL940-989/E990V limits assumed): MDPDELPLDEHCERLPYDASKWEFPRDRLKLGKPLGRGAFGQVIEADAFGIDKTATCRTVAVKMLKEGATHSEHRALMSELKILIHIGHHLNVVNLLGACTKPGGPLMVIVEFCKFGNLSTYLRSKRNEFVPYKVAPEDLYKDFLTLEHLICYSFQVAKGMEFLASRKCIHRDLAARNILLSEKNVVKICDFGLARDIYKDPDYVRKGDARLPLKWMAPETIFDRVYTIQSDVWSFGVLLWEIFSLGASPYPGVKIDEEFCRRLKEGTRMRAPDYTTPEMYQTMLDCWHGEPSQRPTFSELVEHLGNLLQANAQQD
Source text: VEGF-R2 Construct for Assay:
This construct determines the ability of a test compound to inhibit tyrosine kinase activity. A construct (VEGF-R2Δ50) of the cytosolic domain of human vascular endothelial growth factor receptor 2 (VEGF-R2) lacking the 50 central residues of the 68 residues of the kinase insert domain was expressed in a baculovirus/insect cell system. Of the 1356 residues of full-length VEGF-R2, VEGF-R2Δ50 contains residues 806–939 and 990–1171, and also one point mutation (E990V) within the kinase insert domain relative to wild-type VEGF-R2. Autophosphorylation of the purified construct was performed by incubation of the enzyme at a concentration of 4 μM in the presence of 3 mM ATP and 40 mM MgCl2 in 100 mM HEPES, pH 7.5, containing 5% glycerol and 5 mM DTT, at 4° C. for 2 h. […] See Parast et al., Biochemistry, 37, 16788–16801 (1998).
Coupled Spectrophotometric (FLVK-P) Assay
The production of ADP from ATP that accompanies phosphoryl transfer was coupled to oxidation of NADH using phosphoenolpyruvate (PEP) and a system having pyruvate kinase (PK) and lactic dehydrogenase (LDH). The oxidation of NADH was monitored by following the decrease of absorbance at 340 nm (e340=6.22 cm^−1 mM^−1) using a Beckman DU 650 spectrophotometer. Assay conditions for phosphorylated VEGF-R2Δ50 (indicated as FLVK-P in the tables below) were the following: 1 mM PEP; 250 μM NADH; 50 units of LDH/mL; 20 units of PK/mL; 5 mM DTT; 5.1 mM poly(E4Y1); 1 mM ATP; and 25 mM MgCl2 in 200 mM HEPES, pH 7.5. Assay conditions for unphosphorylated VEGF-R2Δ50 (indicated as FLVK in the tables) were the following: 1 mM PEP; 250 μM NADH; 50 units of LDH/mL; 20 units of PK/mL; 5 mM DTT; 20 mM poly(E4Y1); 3 mM ATP; and 60 mM MgCl2 and 2 mM MnCl2 in 200 mM HEPES, pH 7.5. Assays were initiated with 5 to 40 nM of enzyme. Ki values were determined by measuring enzyme activity in the presence of varying concentrations of test compounds. […] The binding inhibitions were fitted to equation as described by Morrison. The data were analyzed using Enzyme Kinetic and Kaleidagraph software.

[2] = tested on: human umbilical vein endothelial cells (HUVEC); test: HUVEC+VEGF proliferation assay; assay type: cell-based; settings: Homo sapiens, HUVEC; VEGF 6 ng/mL, 72 h, MTT
Protocol: HUVEC+VEGF Proliferation Assay
This assay determines the ability of a test compound to inhibit the growth factor-stimulated proliferation of human umbilical vein endothelial cells (“HUVEC”). HUVEC cells (passage 3–4; Clonetics, Corp.) were thawed into EGM2 culture medium (Clonetics Corp) in T75 flasks. Fresh EGM2 medium was added to the flasks 24 hours later. Four or five days later, cells were exposed to another culture medium (F12K medium supplemented with 10% fetal bovine serum (FBS), 60 μg/mL endothelial cell growth supplement (ECGS), and 0.1 mg/mL heparin). Exponentially-growing HUVEC cells were used in experiments thereafter. Ten to twelve thousand HUVEC cells were plated in 96-well dishes in 100 μl of rich, culture medium (described above). The cells were allowed to attach for 24 hours in this medium. The medium was then removed by aspiration and 105 μl of starvation media (F12K+1% FBS) was added to each well. After 24 hours, 15 μl of test agent dissolved in 1% DMSO in starvation medium or this vehicle alone was added into each treatment well; the final DMSO concentration was 0.1%. One hour later, 30 μl of VEGF (30 ng/mL) in starvation media was added to all wells except those containing untreated controls; the final VEGF concentration was 6 ng/mL. Cellular proliferation was quantified 72 hours later by MTT dye reduction, at which time cells were exposed for 4 hours MTT (Promega Corp.). Dye reduction was stopped by addition of a stop solution (Promega Corp.) and absorbance at 595 nm was determined on a 96-well spectrophotometer plate reader.

[3] = target: T2, PDGFRβ (Homo sapiens, UniProt P09619); test: PAE-PDGFRβ phosphorylation in PAE-PDGFRB cells assay; assay type: cell-based; settings: PAE cells overexpressing human PDGFRβ, PDGF-BB stimulated; read-out: PAE PDGFR autophos IC50 (nM) AVG
T2 construct: expressed in transfected cells; host or cells: porcine aorta endothelial (PAE)-PDGFRβ cells
T2 sequence (P09619 33-1106): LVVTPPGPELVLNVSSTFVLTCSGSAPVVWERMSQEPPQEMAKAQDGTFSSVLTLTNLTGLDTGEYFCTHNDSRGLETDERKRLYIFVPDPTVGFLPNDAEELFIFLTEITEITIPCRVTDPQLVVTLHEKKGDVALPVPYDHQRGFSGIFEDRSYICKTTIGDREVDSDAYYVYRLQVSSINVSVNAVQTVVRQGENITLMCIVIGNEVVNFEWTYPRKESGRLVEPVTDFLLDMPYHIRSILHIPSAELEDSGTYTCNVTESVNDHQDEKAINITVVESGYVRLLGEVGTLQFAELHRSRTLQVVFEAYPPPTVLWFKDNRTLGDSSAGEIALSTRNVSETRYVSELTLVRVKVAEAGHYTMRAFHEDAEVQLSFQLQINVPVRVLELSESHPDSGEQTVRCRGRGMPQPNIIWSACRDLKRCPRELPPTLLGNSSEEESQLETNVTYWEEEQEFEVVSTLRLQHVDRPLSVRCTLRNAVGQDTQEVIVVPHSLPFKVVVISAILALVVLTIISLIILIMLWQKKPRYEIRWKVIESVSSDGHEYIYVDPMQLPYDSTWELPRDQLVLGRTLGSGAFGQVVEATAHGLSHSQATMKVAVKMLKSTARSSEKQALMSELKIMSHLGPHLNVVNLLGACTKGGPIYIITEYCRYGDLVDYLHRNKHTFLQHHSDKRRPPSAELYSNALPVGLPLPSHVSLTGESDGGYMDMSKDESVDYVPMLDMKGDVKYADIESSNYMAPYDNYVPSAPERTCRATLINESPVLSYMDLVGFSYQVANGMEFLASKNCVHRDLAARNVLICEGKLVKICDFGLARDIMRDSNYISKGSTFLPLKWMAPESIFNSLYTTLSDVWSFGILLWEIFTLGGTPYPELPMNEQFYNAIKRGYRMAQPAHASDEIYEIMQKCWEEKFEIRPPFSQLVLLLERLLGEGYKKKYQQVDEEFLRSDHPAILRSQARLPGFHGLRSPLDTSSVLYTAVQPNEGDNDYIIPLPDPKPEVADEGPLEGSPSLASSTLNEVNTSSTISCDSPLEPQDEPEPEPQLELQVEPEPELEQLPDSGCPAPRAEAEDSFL
Protocol: PAE-PDGFRβ Phosphorylation in PAE-PDGFRB Cells Assay
This assay determines the ability of a test compound to inhibit the autophosphorylation of PDGFRβ in porcine aorta endothelial (PAE)-PDGFRβ cells. PAE cells that overexpress human PDGFRβ were used in this assay. The cells were cultured in Ham's F12 media supplemented with 10% fetal bovine serum (FBS) and 400 ug/ml G418. Twenty thousands cells were seeded in each well of a 96-well plate in 50 μL of growth media and allowed to attach for 6 hours at 37° C. Cells were then exposed to the starvation media (Ham's F12 media supplemented with 0.1% FBS) for 16 hours. After the starvation period was over, 10 μL of test agent in 5% DMSO in starvation media were added to the test wells and 10 μL of the vehicle (5% DMSO in starvation media) were added into the control wells. The final DMSO concentration in each well was 0.5%. Plates were incubated at 37° C. for 1 hour and the cells were then stimulated with 1 μg/mL PDGF-BB (R & D System) in the presence of 2 mM Na3VO4 for 8 minutes. The cells were washed once with 1 mm Na3VO4 in HBSS and lysed by adding 50 μL per well of lysis buffer. One hundred μL of dilution buffer were then added to each well and the diluted cell lysate was transferred to a 96-well goat ant-rabbit coated plate (Pierce), which was pre-coated with Rabbit anti Human PDGFRβ antibody (Santa Cruz). The plates were incubated at room temperature for 2 hours and washed seven times with 1% Tween 20 in PBS. HRP-PY20 (Santa Cruz) was diluted and added to the plate for a 30-minute incubation. Plates were then washed again and TMB peroxidase substrate (Kirkegaard & Perry) was added for a 10-minute incubation. One hundred μL of 0.09 N H2SO4 was added into each well of the 96-well plate to stop the reaction. Phosphorylation status was assessed by spectrophotometer reading at 450 nm. IC50 values were calculated by curve fitting using a four-parameter analysis.

Row | SMILES | inhibition at 0.05 µM [1] | pKi [1] | IC50 [3] | IC50 [2]
1 | CNC(=O)c1c(C)n(C)c2cc(Oc3ccnc4cc(C(=O)N5CCC(CN)C5)sc34)ccc12 (stereo not drawn) [Example 45, 6-[2-(3-Aminomethyl-pyrrolidine-1-carbonyl)-thieno[3,2-b]pyridin-7-yloxy]-1,2-dimethyl-1H-indole-3-carboxylic acid methylamide] | 64% | 8.33 | 26.9 nM | 10 nM
2 | COC[C@@H]1CCCN1C(=O)c1cc2nccc(Oc3ccc4c(C(=O)NCC5CC5)c(C)sc4c3)c2s1 [Example 132, 6[(2-{[(2S)-2-(Methoxymethyl)pyrrolidin-1-yl]carbonyl}thieno[3,2-b]pyridin-7-yl)oxy]-2-methylbenzo[b]thiophene-3-carboxyllc acid (cyclopropylmethyl)amide] | 80% | 8.75 | 467 nM | 5.8 nM
3 | CNCC1CCN(C(=O)c2cc3nccc(Oc4ccc5c(C(=O)NC)c(C)n(C)c5c4)c3s2)C1 (stereo not drawn) [Example 46, 1,2-Dimethyl-6-[2-(3-methylaminomethyl-pyrrolidine-1-carbonyl)-thieno[3,2-b]pyridin-7-yloxy]-1H-indole-3-carboxylic acid methylamide] | 68% | 8.19 |  | 3.13 nM
4 | CCC(=O)c1cc2nccc(Oc3ccc4c(C(=O)NC)c(C)n(C)c4c3)c2s1 [Example 51, 1,2-Dimethyl-6-(2-propionyl-thieno[3,2-b]pyridin-7-yloxy)-1H-indole-3-carboxylic acid methylamide] | 34% | 7.56 |  | 82 nM
5 | CCc1sc2cc(Oc3ccnc4cc(C(=O)N5CCC5)sc34)ccc2c1C(=O)NC [Example 138, 6-{[2-(Azetidin-1-ylcarbonyl)thieno[3,2-b]pyridin-7-yl]oxy}-2-ethylbenzo[b]thiophene-3-carboxylic acid methylamide] | 85% | 9.11 | 110 nM | 9.9 nM
6 | CNC(=O)c1c(C)n(C)c2cc(Oc3ccnc4cc(C(=O)N5C[C@@H](O)[C@@H](O)C5)sc34)ccc12 [Example 37, 6-[2-(3,4-Dihydroxy-pyrrolidine-1-carbonyl)-thieno[3,2-b]pyridin-7-yloxy]-1,2-dimethyl-1H-indole-3-carboxylic acid methylamide] | 66% | 8.37 |  | 10 nM

Second part, led by results:

Row | inhibition at 0.05 µM [1] | pKi [1] | IC50 [3] | SMILES | IC50 [2]
7 | 86% | 9.42 | 127 nM | CCc1oc2cc(Oc3ccnc4cc(C(=O)N5CCC5)sc34)ccc2c1C(=O)NC [Example 98, 6-[2-(Azetidine-1-carbonyl)-thieno[3,2-b]pyridin-7-yloxy]-2-ethyl-benzofuran-3-carboxylic acid methylamide] | 9.4 nM
8 | 67% | 8.49 |  | CNC(=O)c1csc(-c2cc3nccc(Oc4ccc5c(C(=O)NC)c(C)n(C)c5c4)c3s2)n1 [Example 43, 1,2-Dimethyl-6-[2-(4-methylcarbamoyl-thiazol-2-yl)-thieno[3,2-b]pyridin-7-yloxy]-1H-indole-3-carboxylic acid methylamide] | 10 nM
9 | 12% | 7.33 | 61 nM | CNC(=O)c1c(C)n(C)c2cc(Oc3ccnc4cc(-c5cncnc5)sc34)ccc12 [Example 39, 1,2-Dimethyl-6-(2-pyrimidin-5-yl-thieno[3,2-b]pyridin-7-yloxy)-1H-indole-3-carboxylic acid methylamide] | 8.7 nM
10 | 88% | 8.93 | 609 nM | CCc1sc2cc(Oc3ccnc4cc(C(=O)N5CC[C@@H](O)C5)sc34)ccc2c1C(=O)NC [Example 136, 2-Ethyl-6-[(2-{[(3R)-3-hydroxypyrrolidin-1-yl]carbonyl}thieno[3,2-b]pyridin-7-yl)oxy]benzo[b]thiophene-3-carboxylic acid methylamide] | 10 nM
11 | 76% | 8.55 | 8.9 nM | CNC(=O)c1c(C)n(C)c2cc(Oc3ccnc4cc(-c5ccccn5)sc34)ccc12 [Example 42, 1,2-Dimethyl-6-(2-pyridin-2-yl-thieno[3,2-b]pyridin-7-yloxy)-1H-indole-3-carboxylic acid methylamide] | 4.34 nM
12 | 67% | 7.80 |  | CNC(=O)c1c(C)n(C)c2cc(Oc3ccnc4cc(-c5cccc(OC)n5)sc34)ccc12 [Example 49, 6-[2-(6-Methoxy-pyridin-2-yl)-thieno[3,2-b]pyridin-7-yloxy]-1,2-dimethyl-1H-indole-3-carboxylic acid methylamide] | 7 nM
13 | 74% | 8.58 | 229 nM | CO[C@@H]1CCN(C(=O)c2cc3nccc(Oc4ccc5c(C(=O)NCCO)c(C)sc5c4)c3s2)C1 [Example 123, 6-[(2-{[(3R)-3-Methoxypyrrolidin-1-yl]carbonyl}thieno[3,2-b]pyridin-7-yl)oxy]-2-methylbenzo[b]thiophene-3-carboxylic acid 2-hydroxyethylamide] | 10 nM
14 | 81% | 8.84 | 17.9 nM | Cc1oc2cc(Oc3ccnc4cc(C(=O)N5CCC[C@H]5CO)sc34)ccc2c1C(=O)NCC(C)C [Example 86, 2-Methyl-6-[2-(2-hydroxymethyl-pyrrolidine-1-carbonyl)-thieno[3,2-b]pyridin-7-yloxy]-benzofuran-3-carboxylic acid isobutyl amide] | 3.07 nM
